This note sets out measurements from PubChem BioAssay (NCI).

Values joined by “and” are separate entries in the source; they are usually repeats but may differ in a detail not shown here. Identical values can stand only once.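 Method: 48-hour compound exposure of cells in 96-well plates, five concentrations, linear interpolation of endpoints. Abbreviation: GI50, concentration required for 50% inhibition of growth. TGI denotes the concentration required for complete inhibition of growth.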

Among the test systems are IGROV1 ovarian; BT-549 breast; HS 578T breast; EKVX NSCLC; OVCAR-4 ovarian; UACC-62 melanoma; COLO 205 colon; SK-MEL-5 melanoma; U251 CNS; MCF7 breast.
What all share (test): NCI anticancer screen, dose series, 48 h

Take `OCCCCC#Cc1ccccc1C#Cc1cnccn1`: the GI50 is 25.8 µM with IGROV1 ovarian; 17.4 µM in the assay on BT-549 breast; 24.9 µM with HS 578T breast; 36.5 µM in the assay on EKVX NSCLC; 28.5 µM in the assay on OVCAR-4 ovarian; 21.2 µM in the assay on UACC-62 melanoma. The GI50 in the assay on COLO 205 colon was 32 µM; with SK-MEL-5 melanoma, 38.2 µM; in the assay on U251 CNS, 37.8 µM; in the assay with MCF7 breast, 44.6 µM. Also, the TGI was 96 µM with IGROV1 ovarian; 55.2 µM in the assay with BT-549 breast; 85.1 µM in the assay on HS 578T breast; 95.3 µM in the assay on EKVX NSCLC; more than 100 µM in the assay with OVCAR-4 ovarian; more than 100 µM in the assay on UACC-62 melanoma. For the same molecule, the TGI with COLO 205 colon, in the assay on SK-MEL-5 melanoma, with U251 CNS and in the assay on MCF7 breast was more than 100 µM in each case.
As for `C=C(C)[C@]12CC(C)C34OC(/C=C\C=C\CCCCCCCCC)(O[C@@H]1[C@@H]3[C@@H]1O[C@]1(CO)[C@@H](O)[C@]1(O)C(=O)C(C)=C[C@@H]41)O2` (stereo partly drawn), the TGI was determined as 30 µM in the assay with IGROV1 ovarian; 18.5 µM in the assay with BT-549 breast; 3.97 µM in the assay with HS 578T breast; 27.8 µM in the assay with EKVX NSCLC; 22.6 µM in the assay on OVCAR-4 ovarian; 24 µM in the assay on UACC-62 melanoma. Moreover, the TGI with COLO 205 colon is 14.1 µM; in the assay with SK-MEL-5 melanoma, 24.3 µM; with U251 CNS it was 49.9 µM; in the assay with MCF7 breast, 23.4 µM. Further, the GI50 in the assay with SK-MEL-5 melanoma is 0.000417 µM.
With `COc1ccc(N=C2NN=C(c3c[nH]c4ccccc34)CS2)cc1OC`, the GI50 in the assay with IGROV1 ovarian is 10.5 µM; in the assay on BT-549 breast, 4.2 µM; in the assay on HS 578T breast it was 5.38 µM; with EKVX NSCLC it was 8.77 µM; in the assay on OVCAR-4 ovarian, 16 µM; with UACC-62 melanoma, 4.81 µM. Moreover, the GI50 with COLO 205 colon was 6.55 µM; with SK-MEL-5 melanoma, 3.6 µM; in the assay with U251 CNS it was 6.38 µM; in the assay with MCF7 breast it was 5.21 µM. Moreover, the TGI in the assay on IGROV1 ovarian was more than 100 µM; in the assay with BT-549 breast, more than 42.5 µM; in the assay on HS 578T breast it was more than 100 µM; with EKVX NSCLC, more than 100 µM; in the assay on OVCAR-4 ovarian it was more than 100 µM; in the assay on UACC-62 melanoma it was more than 100 µM. Further, the TGI was more than 76.5 µM in the assay on COLO 205 colon, 23.4 µM with SK-MEL-5 melanoma, more than 100 µM in the assay with U251 CNS and more than 75.5 µM in the assay on MCF7 breast.
`CN(C)c1ccc(Sc2ccc3nc(N)nc(N)c3c2)cc1`: the GI50 in the assay on IGROV1 ovarian was 0.67 µM; with BT-549 breast, 3.28 µM; in the assay on HS 578T breast it was 4.72 µM; with EKVX NSCLC it was 2.27 µM; in the assay on OVCAR-4 ovarian, 1.76 µM; in the assay on UACC-62 melanoma, 0.519 µM. Also, the GI50 in the assay on COLO 205 colon was 1.14 µM; in the assay on SK-MEL-5 melanoma it was 0.503 µM; with U251 CNS it was 0.446 µM; in the assay with MCF7 breast it was 1.14 µM. The TGI in the assay with IGROV1 ovarian amounted to 14.2 µM; in the assay on BT-549 breast, 19.5 µM; in the assay on HS 578T breast it was 27.4 µM; with EKVX NSCLC it was 23.5 µM; with OVCAR-4 ovarian, 17.1 µM; in the assay on UACC-62 melanoma, 5.78 µM. In addition, the TGI amounted to 2.59 µM with COLO 205 colon, 4.78 µM with SK-MEL-5 melanoma, 4.14 µM with U251 CNS and 13.4 µM with MCF7 breast.
In the case of `O=[N+]([O-])O.[NH-]C1CCCCC1[NH-].[NH-]C1CCCCC1[NH-].[NH-]C1CCCCC1[NH-].[OH-].[OH-].[OH-].[Pt+4].[Pt+4].[Pt+4]` (stereo not drawn), the GI50 is 0.258 µM in the assay on IGROV1 ovarian; 3.02 µM in the assay with BT-549 breast; 12.1 µM in the assay on HS 578T breast; 30.1 µM in the assay with EKVX NSCLC; 0.3 µM in the assay with UACC-62 melanoma; 0.631 µM in the assay on COLO 205 colon. In addition, the figures for the GI50 with SK-MEL-5 melanoma, in the assay with U251 CNS and in the assay with MCF7 breast were 0.0363 µM, 0.513 µM and 0.157 µM, respectively. The TGI is 19.4 µM in the assay on IGROV1 ovarian; more than 62.5 µM in the assay with BT-549 breast; more than 61.9 µM in the assay on HS 578T breast; more than 100 µM with EKVX NSCLC; more than 100 µM in the assay on OVCAR-4 ovarian; 16.5 µM with UACC-62 melanoma. In addition, the TGI in the assay on COLO 205 colon was 27.9 µM; with SK-MEL-5 melanoma, 1 µM; with U251 CNS, 38.1 µM; in the assay with MCF7 breast, more than 45.6 µM.
Turning to `CC(C)(C)NCCC(O)c1cc(C(F)(F)F)nc2c(C(F)(F)F)cccc12` (stereo not drawn), the TGI in the assay with IGROV1 ovarian came out at 23.8 µM; with BT-549 breast it was 23.2 µM; in the assay with HS 578T breast, 34.4 µM; with EKVX NSCLC it was 27.2 µM; with OVCAR-4 ovarian, 27.1 µM; in the assay on UACC-62 melanoma, 25.3 µM. The TGI in the assay with COLO 205 colon was 25.5 µM; with SK-MEL-5 melanoma, 25.5 µM; in the assay with U251 CNS, 20.2 µM; with MCF7 breast, 27.6 µM.
Take `N#CC1(C#N)C2C=CC(C3CCC=C32)C1(C#N)C#N` (stereo not drawn): the TGI in the assay on IGROV1 ovarian, in the assay on BT-549 breast, in the assay with HS 578T breast, with EKVX NSCLC, with OVCAR-4 ovarian and in the assay on UACC-62 melanoma was more than 10 µM each time. The TGI in the assay with COLO 205 colon is 3.66 µM; in the assay on SK-MEL-5 melanoma, more than 10 µM; in the assay with U251 CNS, more than 10 µM; with MCF7 breast it was more than 10 µM.
Regarding `COC(=O)Nc1nc2ccc(Sc3ccc(NC(=O)Nc4cc(C(F)(F)F)ccc4F)cc3)cc2[nH]1`, the GI50 in the assay on IGROV1 ovarian is 3.52 µM; with BT-549 breast, 7.86 µM; in the assay on HS 578T breast it was 1.35 µM; with EKVX NSCLC it was 4 µM; with OVCAR-4 ovarian it was 3.64 µM; in the assay on UACC-62 melanoma, 1.85 µM. The GI50 is 3.67 µM with COLO 205 colon, 0.95 µM with SK-MEL-5 melanoma, 3.27 µM with U251 CNS and 0.988 µM with MCF7 breast. Further, the TGI in the assay on IGROV1 ovarian was determined as 11.1 µM; with BT-549 breast it was 24.2 µM; in the assay on HS 578T breast, 7.24 µM; in the assay with EKVX NSCLC, 21.8 µM; with OVCAR-4 ovarian it was 10.7 µM; in the assay with UACC-62 melanoma, 8.38 µM. In addition, the TGI was found to be 9.29 µM in the assay on COLO 205 colon, 11.7 µM in the assay with SK-MEL-5 melanoma, 7.28 µM with U251 CNS and 5.33 µM in the assay on MCF7 breast.
Take `O=c1[nH]c2cc(O)ccc2n2cc3c(F)cccc3c12`: the GI50 with IGROV1 ovarian was 2.16 µM; with BT-549 breast, more than 100 µM; in the assay on HS 578T breast it was 3.85 µM; in the assay with EKVX NSCLC it was 4.69 µM; with OVCAR-4 ovarian, more than 100 µM; in the assay with UACC-62 melanoma, 1.29 µM. Further, the GI50 in the assay on COLO 205 colon is 7.3 µM; with SK-MEL-5 melanoma it was 0.348 µM; with U251 CNS, 2.49 µM; in the assay on MCF7 breast, 0.936 µM. Also, the TGI in the assay with IGROV1 ovarian, in the assay with BT-549 breast, with HS 578T breast, in the assay with EKVX NSCLC, in the assay on OVCAR-4 ovarian and with UACC-62 melanoma was more than 100 µM in each case. Further, the TGI in the assay with COLO 205 colon, in the assay with SK-MEL-5 melanoma, in the assay with U251 CNS and with MCF7 breast was more than 100 µM throughout.
As for `CCN(CC)CCOc1ccc(C2=C(c3ccccc3)CCc3cc(OC)ccc32)cc1`, the GI50 in the assay on IGROV1 ovarian was 1.8 µM; with BT-549 breast it was 4.17 µM; with HS 578T breast, 3.72 µM; with EKVX NSCLC, 3.44 µM; in the assay on OVCAR-4 ovarian, 3.54 µM; in the assay on UACC-62 melanoma, 1.87 µM. For the same molecule, the GI50 is 1.53 µM in the assay on COLO 205 colon, 0.811 µM with SK-MEL-5 melanoma, 2.29 µM in the assay on U251 CNS and 0.547 µM in the assay with MCF7 breast. Besides, the TGI in the assay with IGROV1 ovarian amounted to 4.39 µM; with BT-549 breast, 15.2 µM; with HS 578T breast it was 10.9 µM; in the assay on EKVX NSCLC, 14 µM; in the assay with OVCAR-4 ovarian, 17.2 µM; with UACC-62 melanoma, 3.9 µM. Further, the TGI was 3.04 µM in the assay on COLO 205 colon, 2.29 µM in the assay with SK-MEL-5 melanoma, 7.07 µM with U251 CNS and 2.62 µM in the assay with MCF7 breast.
Regarding `CCOP(=O)(OCC)C(F)(F)CC1CCCCC1`, the TGI in the assay on IGROV1 ovarian, with BT-549 breast, in the assay with HS 578T breast, in the assay on EKVX NSCLC, in the assay with OVCAR-4 ovarian and with UACC-62 melanoma was more than 10 µM throughout. Moreover, the TGI in the assay on COLO 205 colon, in the assay with SK-MEL-5 melanoma, with U251 CNS and in the assay on MCF7 breast was more than 10 µM in each case.
Turning to `CCCOc1c2cc(COC3OC(CO)C(O)C(O)C3O)cc1Cc1cc(COC3OC(CO)C(O)C(O)C3O)cc(c1OCCC)Cc1cc(COC3OC(CO)C(O)C(O)C3O)cc(c1OCCC)Cc1cc(COC3OC(CO)C(O)C(O)C3O)cc(c1OCCC)C2` (stereo not drawn), the GI50 was 60.2 µM and > 100 µM and 15.9 µM in the assay on IGROV1 ovarian; > 100 µM and 72.8 µM and 21.8 µM in the assay with BT-549 breast; > 100 µM and 35.5 µM in the assay on EKVX NSCLC; 90.7 µM and > 100 µM and 16 µM with UACC-62 melanoma; 38.9 µM and 35.9 µM and 13.1 µM with COLO 205 colon; 96.7 µM and > 100 µM and 17.1 µM in the assay on SK-MEL-5 melanoma. The GI50 is 49.3 µM and 48.5 µM and 16.6 µM in the assay on U251 CNS; 53.7 µM and > 100 µM and 19.4 µM in the assay on MCF7 breast. Further, the TGI in the assay on IGROV1 ovarian was > 100 µM and 40.8 µM; in the assay with BT-549 breast it was > 100 µM and 36.4 µM; in the assay with HS 578T breast, more than 100 µM; in the assay with EKVX NSCLC it was more than 100 µM; with OVCAR-4 ovarian, > 100 µM and 76.6 µM; with UACC-62 melanoma it was > 100 µM and 35 µM. In addition, the TGI in the assay on COLO 205 colon was > 100 µM and 26.1 µM; with SK-MEL-5 melanoma, > 100 µM and 32.7 µM; with U251 CNS it was > 100 µM and 31.6 µM; in the assay on MCF7 breast it was > 100 µM and 44.3 µM.
